Results published in PMC8584447, “Adhesive Antimicrobial Peptides Containing 3,4-Dihydroxy-L-Phenylalanine Residues for Direct One-Step Surface Coating” (International Journal of Molecular Sciences, 2021).
Ends that are not written are not given here.

What was measured:
E. coli [1] = experiment: Antibacterial activity of peptide-coated surfaces (ISO 22196, modified), E. coli; type: cell-based, Escherichia coli
Description: (§1) To coat the designed peptides on a surface, 200 μL of freshly prepared 200 μM peptide solution (10 mM Tris-HCl, pH 8.5) was added into a 24-well PS plate and incubated for 10 min at 37 °C. After coating, the plates were rinsed with deionized water and air-dried. The PS, Ti, and PDMS pieces (1 cm × 1 cm) were coated in the same manner. For the PD-mediated AMP coating, a layer of PD was first coated on a 24-well PS plate by dip coating, as previously described, with minor modifications. Each PS well was treated with 2 mg/mL dopamine solution (10 mM Tris-HCl, pH 8.5) and incubated for approximately 1 h at 37 °C. The PD-coated wells were washed twice with deionized water to remove excess dopamine. To attach the NKC peptide to a PD-coated 24-well PS plate, NKC peptide solution (200 μM) was dispensed into each well, and the plate was incubated at 37 °C for 24 h. The wells with the immobilized peptide were then washed twice with deionized water.
(§2) The bactericidal activities of the AMP-coated surfaces were evaluated following the International Organization for Standardization 22196 standard with slight modifications. Overnight bacterial suspensions were subcultured in fresh LB until the mid-log phase and diluted to 10^6 cells/mL with 500-fold diluted LB. The AMP-coated and uncoated substrates (1 cm × 1 cm) were placed in 24-well plates, and 10 μL of the bacterial suspension was distributed over the substrate surface. The substrates were covered with a piece of polyethylene film (1 cm × 1 cm) and incubated for 2 h (37 °C, relative humidity: >90%). Subsequently, SCDLP broth (990 μL) was added, and viable cells were retrieved and serially diluted. Aliquots (100 μL) of the bacterial suspension were withdrawn and plated for colony counting.

E. coli ATCC 27325 = type: cell-based, Escherichia coli; conditions: ATCC 27325, 18 h
Description: The MICs of the designed peptides were measured against the gram-negative bacterium E. coli ATCC 27325 according to the general guidelines of the Clinical and Laboratory Standards Institute, with some modifications based on a study of cationic AMPs. Briefly, a single bacterial colony was cultured in Mueller−Hinton broth (MHB; Sigma–Aldrich) until the mid-log phase (optical density of 0.4–0.6 at 600 nm). The bacterial suspension was diluted with fresh MHB to a concentration of 10^6 colony-forming units (CFU)/mL. Next, two-fold serial dilutions (128 to 1 μM) of the peptides were prepared in MHB and mixed (1:1) with the diluted bacterial culture, resulting in a final peptide concentration ranging from 64 to 0.5 μM and final bacteria concentration of 5 × 10^5 cells/mL. The mixtures were placed into 96-well polypropylene microtiter plates (Corning), with sterile MHB used as a negative control and MHB inoculated with bacterial cells used as growth control. The plates were incubated for 18 h at 37 °C with shaking at 200 rpm. The MIC values were determined as the lowest concentrations at which no bacterial growth was recorded at 600 nm using a microplate reader (Infinite 200 Pro; Tecan, Männedorf, Switzerland).

P. aeruginosa [2] = experiment: Bacterial adhesion / biofilm assay (live/dead staining, confocal microscopy), P. aeruginosa; type: cell-based, Pseudomonas aeruginosa; conditions: 10^7 cells/mL, 24 h, 37 °C, SYTO9/PI staining
Description: (§3) The viability of bacterial cells adhered to the substrate surface was evaluated using the Live/Dead BacLight Bacterial Viability Kit (Thermo Fisher Scientific) according to the manufacturer’s instructions. Briefly, 200 μL of bacterial suspensions adjusted to 10^7 cells/mL were incubated on uncoated or peptide-coated chambered cover glasses (Thermo Fisher Scientific) at 37 °C for 24 h. After 24 h, planktonic cells were removed, and the surfaces were washed with 0.85% (w/v) NaCl buffer. Cells attached to the surfaces were stained for 15 min in the dark with BacLight stock solution containing two fluorescent nucleic acid stains, SYTO9 and propidium iodide (PI). After staining, the surfaces were washed with 0.85% NaCl solution, and the stained cells were photographed using confocal laser-scanning microscopy (LSM 5 LIVE DuoScan, Carl Zeiss, Jena, Germany) using a 63× objective. The excitation wavelengths were 488 and 561 nm for SYTO9 and PI, respectively.

E. coli [3] = experiment: Stability assessment of surface-coated peptide (antimicrobial activity after storage); type: cell-based, Escherichia coli; conditions: for antimicrobial activity after storage: coated PS stored at 25 °C, (Nc−N)/Nc×100, mean ± SD
Description: as §2
To evaluate the stability of the surface-coated peptides, antimicrobial activity was determined as described above after incubating the AMP-coated PS plates for 1, 7, 14, 21, 28, 56, and 84 days at 4 °C and 25 °C and with the formula below: Antimicrobial activity (%)=Nc−N/Nc×100 where Nc and N represent the number of colonies after incubation on the control and AMP-coated substrates, respectively.

P. aeruginosa [4] = experiment: Antibacterial activity of peptide-coated surfaces (ISO 22196, modified), P. aeruginosa; type: cell-based, Pseudomonas aeruginosa; conditions: NKC-DOPA5-coated PS, Ti and PDMS (1 cm × 1 cm), 10 μL of 10^6 cells/mL, 37 °C
Description: as §1
(§4) The bactericidal activities of the AMP-coated surfaces were evaluated following the International Organization for Standardization 22196 standard with slight modifications. Overnight bacterial suspensions were subcultured in fresh LB until the mid-log phase and diluted to 10^6 cells/mL with 500-fold diluted LB. […]

E. coli [5] = experiment: Bacterial adhesion / biofilm assay (live/dead staining, confocal microscopy), E. coli; type: cell-based, Escherichia coli; conditions: 10^7 cells/mL, 24 h, 37 °C, SYTO9/PI staining
Description: as §3

P. aeruginosa [6] = experiment: Rat subcutaneous implant infection model; type: in vivo, Sprague–Dawley rats
Description: In vivo antibacterial activity was evaluated using specific pathogen-free Sprague–Dawley male rats (7 weeks old, weighing 200−220 g). All animal experiments were approved by the Animal Ethics Committee of KNOTUS, Incheon, Korea (approval no. 18-KE-383) and performed following the guidelines for the care and use of laboratory animals of KNOTUS. All rats were housed in individually ventilated cages and acclimated for 7 days before surgery. For implantation, the rats were anesthetized by intramuscular injection of Zoletil® (30 mg/kg; Virbac, Carros, France), and the dorsum was shaved and disinfected with 70% isopropyl alcohol. Approximately 1 cm wide incisions were made parallel to the spine and extended to the subdermal fascia. For the control group, uncoated Ti screws or PDMS slides were implanted into the left flank, whereas AMP-coated implants were inserted into the right flank. The wounds were sutured, and the implant site was marked on the skin. Setting the skin mark as a guide, 100 μL of a p. aeruginosa inoculum containing 2.5 × 10^8 cells/mL was injected subcutaneously. The rats were euthanized by CO2 asphyxia at 5 days after the bacterial challenge. The implants were removed using sterile tools and placed in sterile tubes containing 1 mL of PBS. For the detachment of bacteria from the implant materials, the tubes were sonicated for 15 min, and 10-fold serial dilutions of the bacterial solution were plated on LB agar for CFU determination. The tissues surrounding the implants were carefully removed, separately immersed in 1 mL of PBS, and homogenized. Bacteria in the tissues were quantified by serial dilution. For histological examination, the tissues surrounding the implants were formaldehyde-fixed, paraffin-embedded, and then stained with hematoxylin and eosin [26].

S. aureus [7] = experiment: Bacterial adhesion / biofilm assay (live/dead staining, confocal microscopy), S. aureus; type: cell-based, Staphylococcus aureus; conditions: 10^7 cells/mL, 24 h, 37 °C, SYTO9/PI staining
Description: as §3

S. aureus [8] = experiment: Antibacterial activity of peptide-coated surfaces (ISO 22196, modified), S. aureus; type: cell-based, Staphylococcus aureus; conditions: NKC-DOPA5-coated PS, Ti and PDMS (1 cm × 1 cm), 10 μL of 10^6 cells/mL, 37 °C
Description: as §1, §4

[9] = peptide-coated 24-well PS, 10^6 cells/mL E. coli, 2 h, colony counting
[10] = coated PDMS implants, 5 days post-inoculation

Description for HaCaT cells: To evaluate the toxicity of the peptides coated on the substrates towards human skin, the mitochondrial dehydrogenase activity of HaCaT keratinocytes was measured in a modified 3-(4,5-dimethyl-2-thiazolyl)-2,5-diphenyl-2H-tetrazolium bromide (MTT) reduction assay. HaCaT cells were routinely cultured in Dulbecco’s modified Eagle’s medium (DMEM; Lonza, Basel, Switzerland) with 10% fetal bovine serum (Lonza) and 1% penicillin–streptomycin solution (Thermo Fisher Scientific) in humidified 5% CO2 at 37 °C. The cultured cells were washed twice with phosphate-buffered saline (PBS; pH 7.4) and detached by trypsinization. The harvested HaCaT cells were diluted to 5 × 10^4 cells/mL, seeded into 12-well culture plates, and incubated in a humidified incubator with 5% CO2. After incubation, the medium was changed to serum-free DMEM, and uncoated or AMP-coated pieces (PS/Ti/PDMS; 1 cm × 1 cm) were placed upside down on the HaCaT cells. After 24 h, the pieces were removed, and MTT solution in 1 mL of DMEM was added to each well. […] The plate was incubated overnight, and the absorbance was measured at 570 nm using a microplate reader (Tecan Infinite 200 Pro). […] Cell viability was expressed as the percentage of surviving cells on the coated substrates relative to those on the uncoated substrates.

Substance: APKAMKLLKKLLKLQKKGIGGGGSGGGGSY [NKC-DOPA1, NKC with glycine–serine linker and 1 DOPA moiety at the C-terminus]
- bacterial growth on coated surface (in words) (E. coli [1]; [9]): hardly inhibited bacterial growth

Substance: APKAMKLLKKLLKLQKKGI-NH2 (C-terminus assumed) [NKC, reference compound]
- MIC (E. coli ATCC 27325): 1 µM
- reduction of the cell count (E. coli [1]; NKC attached via polydopamine (PD) to PS plate, E. coli, 2 h): approximately 4.2 log

Substance: APKAMKLLKKLLKLQKKGIGGGGSGGGGSYYYYYYY [NKC-DOPA7, NKC with glycine–serine linker and 7 DOPA moieties at the C-terminus]
- bacterial growth on coated surface (in words) (E. coli [1]; [9]): No bacterial growth was observed

Substance: APKAMKLLKKLLKLQKKGIGGGGSGGGGSYYY [NKC-DOPA3, NKC with glycine–serine linker and 3 DOPA moieties at the C-terminus]
- log reduction in the cell count (E. coli [1]; [9]): 5.7 log

Substance: APKAMKLLKKLLKLQKKGIGGGGSGGGGSYYYYY [NKC-DOPA5, NKC with glycine–serine linker and 5 DOPA moieties at the C-terminus]
- biofilm formation on coated surface (P. aeruginosa [2]): remarkably inhibited biofilm formation
- cell viability (HaCaT cells): > 90%
- number of viable bacterial cells after 2 h (E. coli [1]; NKC-DOPA5-coated PS, Ti and PDMS (1 cm × 1 cm), 10 μL of 10^6 cells/mL, 37 °C): zero
- bacterial growth on coated surface (in words) (E. coli [1]; [9]): No bacterial growth was observed
- change in antimicrobial activity during storage (E. coli [3]; coated PS plate stored at 4 °C for 84 days): no change
- antimicrobial activity after storage (E. coli [3]; 7 days): 99.75 ± 0.16%
- antimicrobial activity after storage (E. coli [3]; 84 days): 99.17 ± 3.25%
- number of viable bacterial cells after 2 h (P. aeruginosa [4]): zero
- biofilm formation on coated surface (E. coli [5]): remarkably inhibited biofilm formation
- decrease in number of bacteria recovered from surrounding tissues vs pristine (P. aeruginosa [6]; PDMS implants, 5 days post-inoculation): approximately 3.8 log CFU/g
- difference in number of bacteria in surrounding tissues, pristine vs coated (P. aeruginosa [6]; Ti implants, 5 days post-inoculation): 3 log CFU/g
- implants from which microorganisms were absent (P. aeruginosa [6]; [10]): three of the five implants
- median number of bacteria recovered from surrounding tissues (P. aeruginosa [6]; [10]): 0.9 log CFU/g
- average bacterial count per implant (P. aeruginosa [6]; coated PDMS implants, five implants, 5 days post-inoculation): 0.92 log CFU/mL per implant
- microbial loads of the two colonised implants (P. aeruginosa [6]; coated PDMS, the other two of five implants, 5 days post-inoculation): 2.0−2.6 log CFU/mL
- number of bacteria from tissues surrounding the implants (P. aeruginosa [6]; coated Ti implants, 5 days post-inoculation): 2.7 log CFU/g
- microorganisms on implants (P. aeruginosa [6]; coated Ti screw, five implants, 5 days post-inoculation of P. aeruginosa): no microorganisms were observed
- inflammation of tissues around the implants (P. aeruginosa [6]; coated Ti screws and PDMS, 5 days post-inoculation, gross observation): without apparent inflammation
- biofilm formation on coated surface (S. aureus [7]): remarkably inhibited biofilm formation
- number of viable bacterial cells after 2 h (S. aureus [8]): zero
